Calls of active or inactive are those of the source.

For one test, the target named is Trypsin (Sus scrofa, UniProt P00761). Description: trypsin protease activity blockade – biochemical, quenched peptide fluorescence, cherry-pick, selectivity assay for Rce1 protease inhibitor project, dose response (AID 488789).
In test [1] the target is CAAX prenyl protease 2 (Saccharomyces cerevisiae S288c, UniProt Q03530). The class given is biochemical.
Test [2] has as its target CAAX prenyl protease 2 (Homo sapiens, UniProt Q9Y256). Description: inhibition of Ras-converting CAAX protease Rce1 – biochemical, yeast membranes, quenched-peptide fluorescence, cherry-pick, dose response (AID 588849).
A further test addresses Kallikrein-7 (Homo sapiens, UniProt P49862). Description: Fluorescence Intensity-based biochemical primary high throughput dose response assay to identify activators of kallikrein-7 (K7) zymogen.
Test [3] has as its system Vero. Description: cells. The class given is functional, cell-based. Particulars: Chlorocebus sabaeus.
Test [4] deals with Delta-type opioid receptor (Homo sapiens, UniProt P41143). Briefly: Counterscreen for agonists of heterodimerization of the mu 1 (OPRM1) and delta 1 (OPRD1) opioid receptors: Luminescence-based cell-based high throughput dose response assay to identify agonists of OPRD1 homodimerization. [Related pubchem assays (depositor defined):AID504326, AID504355, AID504692, AID504904, AID504905]. The class given is functional.
Chain of Delta-type opioid receptor (P41143 whole entry): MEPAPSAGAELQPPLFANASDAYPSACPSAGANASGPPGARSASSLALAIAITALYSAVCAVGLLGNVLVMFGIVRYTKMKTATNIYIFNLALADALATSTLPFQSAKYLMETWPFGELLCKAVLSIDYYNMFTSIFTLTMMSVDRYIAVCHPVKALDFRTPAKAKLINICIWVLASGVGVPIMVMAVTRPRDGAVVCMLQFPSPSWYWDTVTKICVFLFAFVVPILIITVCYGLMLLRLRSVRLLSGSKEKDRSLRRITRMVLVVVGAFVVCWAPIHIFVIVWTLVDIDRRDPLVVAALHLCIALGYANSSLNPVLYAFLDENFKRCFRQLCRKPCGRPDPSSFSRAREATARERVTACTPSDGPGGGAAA

The next test addresses Mu-type opioid receptor (Homo sapiens, UniProt P35372). Briefly: Counterscreen for agonists of heterodimerization of the mu 1 (OPRM1) and delta 1 (OPRD1) opioid receptors: Luminescence-based cell-based high throughput dose response assay to identify agonists of OPRM1 homodimerization. The class given is functional.
The target of test [5] is Opioid receptors; mu & delta (Homo sapiens, UniProt P41143+P35372). Briefly: OPRM1-OPRD1 heterodimer agonist potency – cell-based, luminescence, dose response (AID 588407). It counts as functional.
The target in test [6] is 5-hydroxytryptamine receptor 5A (Homo sapiens, UniProt P47898). Briefly: Counterscreen for agonists of OPRM1-OPRD1 heterodimerization: luminescence-based cell-based high throughput dose response assay to identify agonists of 5-hydroxytryptamine (serotonin) 5A receptor (HTR5A). [Related pubchem assays (depositor defined):AID504326, AID504355, AID504692, AID504904, AID504905]. It counts as functional. On the technique in general: The purpose of a counterscreen is to sort out artefacts and off-target activity.
Chain of 5-hydroxytryptamine receptor 5A (P47898 whole entry): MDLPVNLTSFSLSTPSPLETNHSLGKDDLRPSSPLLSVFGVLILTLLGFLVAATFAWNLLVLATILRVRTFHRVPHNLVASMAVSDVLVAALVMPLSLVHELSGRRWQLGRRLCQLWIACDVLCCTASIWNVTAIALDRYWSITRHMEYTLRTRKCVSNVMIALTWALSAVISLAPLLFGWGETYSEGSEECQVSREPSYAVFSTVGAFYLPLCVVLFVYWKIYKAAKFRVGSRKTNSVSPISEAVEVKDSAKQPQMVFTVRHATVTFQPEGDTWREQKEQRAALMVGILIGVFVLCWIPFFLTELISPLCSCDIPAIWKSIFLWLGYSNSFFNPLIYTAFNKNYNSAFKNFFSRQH

Test [7] concerns Vero. Briefly: cells. The following applies: Chlorocebus sabaeus. It counts as functional.
The target in the next test is Hexokinase-1 (Homo sapiens, UniProt P19367). Briefly: hexokinase 1 activity inhibitors, potency – biochemical, set 2, resazurin fluorescence coupled readout, selectivity assay for HKDC1 inhibitor project, SAR follow-up (AID 588356). It counts as functional. (Resazurin is reduced to fluorescent resorufin, in cell work by metabolically active cells.)
Chain of Hexokinase-1 (P19367 whole entry): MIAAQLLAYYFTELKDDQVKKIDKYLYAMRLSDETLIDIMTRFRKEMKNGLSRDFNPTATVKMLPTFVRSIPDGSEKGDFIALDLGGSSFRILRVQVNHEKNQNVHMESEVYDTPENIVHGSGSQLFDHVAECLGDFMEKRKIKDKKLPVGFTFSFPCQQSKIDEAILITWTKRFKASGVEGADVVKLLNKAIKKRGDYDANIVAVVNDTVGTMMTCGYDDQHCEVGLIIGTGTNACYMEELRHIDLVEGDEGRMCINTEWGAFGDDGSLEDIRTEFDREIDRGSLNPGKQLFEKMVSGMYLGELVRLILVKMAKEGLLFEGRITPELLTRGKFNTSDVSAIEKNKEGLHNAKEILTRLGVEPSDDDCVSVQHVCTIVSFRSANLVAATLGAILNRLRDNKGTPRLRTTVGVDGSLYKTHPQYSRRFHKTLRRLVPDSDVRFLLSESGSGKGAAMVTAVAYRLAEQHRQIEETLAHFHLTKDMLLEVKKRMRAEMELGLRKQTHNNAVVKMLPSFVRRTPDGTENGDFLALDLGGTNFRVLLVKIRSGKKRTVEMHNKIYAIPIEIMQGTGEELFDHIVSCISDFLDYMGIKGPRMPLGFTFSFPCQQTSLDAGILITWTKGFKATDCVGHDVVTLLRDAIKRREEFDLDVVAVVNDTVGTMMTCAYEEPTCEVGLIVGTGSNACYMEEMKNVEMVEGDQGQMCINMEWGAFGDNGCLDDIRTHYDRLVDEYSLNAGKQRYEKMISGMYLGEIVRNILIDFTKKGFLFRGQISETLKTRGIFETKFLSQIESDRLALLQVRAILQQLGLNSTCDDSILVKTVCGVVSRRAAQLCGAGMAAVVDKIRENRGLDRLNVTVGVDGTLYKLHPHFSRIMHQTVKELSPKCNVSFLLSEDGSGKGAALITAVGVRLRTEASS
In another test the target is Hexokinase HKDC1 (Homo sapiens, UniProt Q2TB90). Briefly: analog inhibition of human HKDC1 activity – biochemical, set 2, SAR follow-up (AID 588355). The class given is functional.
Chain of Hexokinase HKDC1 (Q2TB90 whole entry): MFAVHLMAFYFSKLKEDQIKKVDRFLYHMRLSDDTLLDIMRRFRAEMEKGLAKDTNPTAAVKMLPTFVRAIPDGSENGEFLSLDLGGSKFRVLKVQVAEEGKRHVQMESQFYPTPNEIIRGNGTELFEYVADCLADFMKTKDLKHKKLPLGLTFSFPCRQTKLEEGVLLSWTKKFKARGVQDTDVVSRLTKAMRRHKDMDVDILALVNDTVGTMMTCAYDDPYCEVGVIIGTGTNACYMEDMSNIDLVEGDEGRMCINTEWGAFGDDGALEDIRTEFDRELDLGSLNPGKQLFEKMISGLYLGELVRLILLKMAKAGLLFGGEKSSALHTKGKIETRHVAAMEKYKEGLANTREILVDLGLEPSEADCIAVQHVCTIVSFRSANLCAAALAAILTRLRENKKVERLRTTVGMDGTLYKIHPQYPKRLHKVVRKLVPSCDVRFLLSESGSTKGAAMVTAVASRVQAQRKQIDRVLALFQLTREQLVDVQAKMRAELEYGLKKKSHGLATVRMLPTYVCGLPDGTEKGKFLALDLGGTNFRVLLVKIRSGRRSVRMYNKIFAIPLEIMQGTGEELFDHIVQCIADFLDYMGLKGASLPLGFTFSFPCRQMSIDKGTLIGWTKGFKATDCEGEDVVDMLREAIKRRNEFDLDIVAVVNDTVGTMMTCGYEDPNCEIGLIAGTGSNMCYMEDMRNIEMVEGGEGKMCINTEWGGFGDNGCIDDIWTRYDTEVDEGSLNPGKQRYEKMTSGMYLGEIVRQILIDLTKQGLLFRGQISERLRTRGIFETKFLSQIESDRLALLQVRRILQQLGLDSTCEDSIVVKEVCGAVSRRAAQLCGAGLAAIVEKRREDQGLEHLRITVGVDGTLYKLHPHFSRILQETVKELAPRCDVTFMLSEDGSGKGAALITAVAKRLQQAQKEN

Chain of CAAX prenyl protease 2 (Homo sapiens, UniProt Q9Y256) (Q9Y256 whole entry): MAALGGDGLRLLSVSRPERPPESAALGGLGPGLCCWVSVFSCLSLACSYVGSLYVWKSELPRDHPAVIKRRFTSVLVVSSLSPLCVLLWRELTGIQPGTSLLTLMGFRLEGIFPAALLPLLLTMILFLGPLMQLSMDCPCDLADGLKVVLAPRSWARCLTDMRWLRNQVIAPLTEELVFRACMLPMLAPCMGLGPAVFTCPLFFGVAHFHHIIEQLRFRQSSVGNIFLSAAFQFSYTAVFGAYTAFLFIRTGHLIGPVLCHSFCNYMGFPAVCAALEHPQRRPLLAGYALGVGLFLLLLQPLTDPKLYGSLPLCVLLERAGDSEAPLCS
Chain of CAAX prenyl protease 2 (Saccharomyces cerevisiae S288c, UniProt Q03530) (Q03530 whole entry): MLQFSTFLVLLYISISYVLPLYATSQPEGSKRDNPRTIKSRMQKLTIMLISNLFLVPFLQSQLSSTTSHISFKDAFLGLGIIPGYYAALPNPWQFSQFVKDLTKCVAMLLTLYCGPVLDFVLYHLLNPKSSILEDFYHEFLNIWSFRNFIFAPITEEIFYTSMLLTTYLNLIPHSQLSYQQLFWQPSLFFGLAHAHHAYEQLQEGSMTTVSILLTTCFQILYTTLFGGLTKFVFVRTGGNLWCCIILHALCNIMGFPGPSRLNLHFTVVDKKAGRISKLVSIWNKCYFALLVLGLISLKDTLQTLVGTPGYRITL
Chain of Kallikrein-7 (P49862 whole entry): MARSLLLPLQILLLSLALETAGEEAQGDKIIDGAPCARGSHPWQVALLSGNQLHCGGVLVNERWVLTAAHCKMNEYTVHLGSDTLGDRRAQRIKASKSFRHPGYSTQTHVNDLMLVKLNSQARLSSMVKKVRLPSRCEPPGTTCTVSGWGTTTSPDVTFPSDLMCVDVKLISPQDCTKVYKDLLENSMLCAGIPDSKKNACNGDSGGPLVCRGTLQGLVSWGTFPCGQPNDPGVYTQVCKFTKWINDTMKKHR
Chain of Mu-type opioid receptor (P35372 whole entry): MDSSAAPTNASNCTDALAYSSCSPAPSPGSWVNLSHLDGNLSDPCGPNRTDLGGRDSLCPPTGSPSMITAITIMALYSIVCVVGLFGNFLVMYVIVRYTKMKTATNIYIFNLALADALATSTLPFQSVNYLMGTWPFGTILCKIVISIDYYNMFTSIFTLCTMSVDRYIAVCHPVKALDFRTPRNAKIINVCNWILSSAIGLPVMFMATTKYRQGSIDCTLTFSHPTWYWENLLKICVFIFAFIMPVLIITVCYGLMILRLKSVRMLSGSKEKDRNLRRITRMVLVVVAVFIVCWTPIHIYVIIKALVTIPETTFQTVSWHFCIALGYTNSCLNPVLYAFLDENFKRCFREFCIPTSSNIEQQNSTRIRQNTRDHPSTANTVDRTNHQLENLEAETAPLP
Chain of Trypsin (P00761 whole entry): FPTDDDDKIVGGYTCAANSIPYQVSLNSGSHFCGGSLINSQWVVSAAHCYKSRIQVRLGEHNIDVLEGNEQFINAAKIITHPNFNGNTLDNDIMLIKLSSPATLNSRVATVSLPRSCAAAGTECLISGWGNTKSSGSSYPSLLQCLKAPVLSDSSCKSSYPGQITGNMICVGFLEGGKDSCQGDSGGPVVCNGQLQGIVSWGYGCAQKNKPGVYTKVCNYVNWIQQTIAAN

The term AC50 denotes the midpoint of the concentration-response curve, whichever way the signal moves. One may read the EC50 as the concentration giving half of the maximal effect. `CCNc1nc(C)c(CN(C(C)=O)c2ccccc2)nc1C#N`: the half-maximal activity concentration (AC50) at Trypsin was 5.26 µM (active); at CAAX prenyl protease 2 [1], 48.9 µM (active); on CAAX prenyl protease 2 [2], 5.91 µM (active). In addition, the EC50 at Kallikrein-7 is > 69.5 µM (inactive).

Broadly, the IC50 is the concentration that inhibits the measured activity by half. By CC50 is commonly meant the concentration at which the toxic effect on the cells reaches its halfway point. For `CO[C@H]1[C@H](O)[C@H](O[C@H]2CC[C@@]3(C=O)[C@H](CC[C@@H]4[C@@H]3CC[C@]3(C)[C@@H](C5=CC(=O)OC5)CC[C@]43O)C2)O[C@@H](C)[C@@H]1O` [PERUVOSIDE], the IC50 with Vero [3] was < 0.05 µM (active). Moreover, the EC50 in test [4] is > 92.5 µM (inactive); at Mu-type opioid receptor, > 92.5 µM (inactive); in [5], greater than 0.1268 µM; in test [6], > 92.5 µM (inactive). Further, the CC50 in the test on Vero [7] was < 0.05 µM (active).

Consider `CCOc1ccc(N2C(=O)c3cccnc3C2Nc2ccc(C)c(C)c2)cc1` (configuration not stated), for which the IC50 at Hexokinase-1 is > 80 µM (inactive); on Hexokinase HKDC1 it was 77.1 µM (inactive).
